Assays:
cotton cotyledons = assay: Cotton cotyledon bioefficacy assay (ethylene production by gas chromatography); format: in vivo; details: for Ethylene production in cotton cotyledons, average: Average of trials, 500 ppm ACC, 48 hours after application; for Ethylene production in cotton cotyledons: 500 ppm ACC sprayed on 10-day old cotyledons, removed 48 hours after application, incubated 4 to 7 hours
Protocol: The ACC anhydrate from Chem-Impex International, Inc., an ACC anhydrate prepared by Inogent Laboratories of India and the ACC trihydrate of the present invention were each dissolved with water to 500 ppm w!w of ACC and applied separately to individual sets of 10-day old cotton cotyledons by a hand sprayer in 4 separate trials. 48 hours after application the cotyledons were removed and incubated in sealed vials for 4 to 7 hours. Following incubation, the cotyledons were measured for ethylene gas production by gas chromatography.

[1] = Crystal form stability under high humidity; format: physicochemical

| Structure (SMILES) | Ethylene production in cotton cotyledons, average (cotton cotyledons) | Ethylene production in cotton cotyledons (cotton cotyledons; Trial 1) | Ethylene production in cotton cotyledons (cotton cotyledons; Trial 2) | Ethylene production in cotton cotyledons (cotton cotyledons; Trial 3) | Ethylene production in cotton cotyledons (cotton cotyledons; Trial 4) | Ethylene production in cotton cotyledons, average (cotton cotyledons; trihydrate) | Ethylene production in cotton cotyledons (cotton cotyledons; Trial 1, trihydrate) | Ethylene production in cotton cotyledons (cotton cotyledons; Trial 2, trihydrate) | Ethylene production in cotton cotyledons (cotton cotyledons; Trial 3, trihydrate) | Ethylene production in cotton cotyledons (cotton cotyledons; Trial 4, trihydrate) | Stability of crystal form [1] |
| --- | --- | --- | --- | --- | --- | --- | --- | --- | --- | --- | --- |
| NC1(C(=O)O)CC1 [Chem-Impex Anhydrate, 1-aminocyclopropane-1-carboxylic acid anhydrate] | 25.66 nL C2H4/g/hr | 28.14 nL C2H4/g/hr | 23.18 nL C2H4/g/hr | – | – | – | – | – | – | – | – |
| NC1(C(=O)O)CC1 [Inogent Anhydrate] | 20.07 nL C2H4/g/hr | 25.00 nL C2H4/g/hr | 20.33 nL C2H4/g/hr | 17.53 nL C2H4/g/hr | 17.43 nL C2H4/g/hr | – | – | – | – | – | – |
| NC1(C(=O)O)CC1 [Trihydrate, 1-aminocyclopropane-1-carboxylic acid trihydrate] | – | – | – | – | – | 22.71 nL C2H4/g/hr | 15.06 nL C2H4/g/hr | 22.04 nL C2H4/g/hr | 36.30 nL C2H4/g/hr | 17.46 nL C2H4/g/hr | most stable crystal form of ACC under high humidity |

Source: US20180282260A1, “1-AMINOCYCLOPROPANE-1-CARBOXYLIC ACID POLYMORPHS” (Valent BioSciences LLC, priority 2017, published 2018)
